Assay results as given in patent publication US7824691B2 (priority 2005, dated 2010).
Ends that are not written are not given here.

Key:
[1] = test system: S. aureus ATCC 25923; assay: Murine sepsis model 1, live S. aureus i.v. challenge (lethality, bacteremia); assay type: in vivo, BALB/c male mice; conditions: for Lethality (%) / Lethality (dead/total): monitored 72 h; for Quantitative Blood Culture (CFU/ml), mean ± S.D. / Qualitative Blood Culture (positive/total): blood 24 h after challenge
Procedure: Animals: BALB/c male mice weighing 23 to 30 g were used for all the experiments. All animals were housed in individual cages under constant temperature (22° C.) and humidity with a 12 hour light/dark cycle and had access to food and water ad libitum throughout the study. The study was approved by the animal research ethics committee of the I.N.R.C.A.-I.R.R.C.S., Polytechnic University of Marche, Ancona, Italy.
Preparation of the inoculum: S. aureus ATCC 25923 were grown overnight at 37° C. in brain-heart infusion broth. When bacteria were in the log phase of growth the suspension was centrifuged at 1000× g for 15 min, the supernatant was discarded, and the bacteria were resuspended in sterile saline to achieve a concentration of approximately 1×10^7 CFU/mL.
(§1) Implantation of inoculum: All animals were anesthetized by an intramuscular injection of ketamine (30 mg/kg of body weight). Mice were injected intravenously (i.v.) via the tail vein with 0.2 mL of the above mentioned bacterial suspensions: (i) 2.0×10^6 CFU of S. aureus ATCC 25923 (model 1), or (ii) 5.0×10^8 heat-killed cells (model 2) on day 0 and monitored for 72 hours.
(§2) Antibiotic therapy. […] Each group included 20 mice. The animals were returned to individual cages and monitored for the subsequent 72 hours. The endpoints of the study were lethality rates (model 1), quantitative blood cultures (bacteremia, model 1), and TNF-α or IL-6 plasma levels (model 2).
Evaluation of treatment: Blood samples for culture were obtained from the tail vein by aseptic percutaneous puncture 24 h after bacterial challenge. The animals that died before this time were not tested. To perform quantitative bacterial cultures, blood samples were serially diluted, a 0.1 mL volume of each dilution was spread on blood agar plates and cultured at 35° C. for 48 h, and colony forming units (CFU) were counted. The limit of detection was <10 CFU/mL.
Statistical analysis: Lethality rates between groups were compared by use of Fisher's exact test. Data from quantitative blood cultures were presented as means±standard deviations (SDs) of the mean; statistical comparisons between groups were made by analysis of variance. Post hoc comparisons were performed by Bonferroni's test. Plasma IL-6 and TNF-α mean values were compared between groups by analysis of variance. Significance was accepted when the p value was <0.05.

[2] = test system: IL-6 plasma levels; assay: Murine sepsis model 2, heat-killed S. aureus challenge, plasma IL-6; assay type: in vivo, BALB/c male mice
Procedure: (§3) Heat-killed S. aureus were prepared by boiling for 10 min and sonicating a bacterial suspension for 1 min in phosphate buffered saline containing approximately 2.5×10^9 cells/mL.
as §1, §2
(§4) Plasma TNF-α and IL-6 levels. […] TNF-α levels were measured with a solid phase sandwich enzyme-linked immunosorbent assay (ELISA). The intensity of the color was measured in a MR 700 Microplate Reader (Dynatech Laboratories, Guernsey, United Kingdom) by reading the absorbance at 450 nm. […] The plasma concentrations of IL-6 were also determined by ELISA, as described above. Quantification was performed on the basis of a standard curve. […]

[3] = test system: TNF-α plasma levels; assay: Murine sepsis model 2, heat-killed S. aureus challenge, plasma TNF-α; assay type: in vivo, BALB/c male mice
Procedure: as §3, §1, §2, §4

[4] = Toxicity in supplementary treated groups without challenge; assay type: in vivo, BALB/c male mice; conditions: supplementary treated groups without previous infection
[5] = test system: RAW264.7 cells; assay: LTA-stimulated NO production by RAW264.7 cells (Griess reagent); assay type: cell-based, murine; conditions: 20 μg/mL inactive RIP peptide analogue; data not shown
Procedure: (§5) Cytokine production by RAW 264.7 cells: The murine macrophage cell line RAW264.7 was obtained from American Type Culture Collection (ATCC) and maintained in RPMI supplemented with 10% fetal calf serum (FCS), 2 mM L-glutamine, 100 units/mL penicillin and 100 μg/mL streptomycin in a humidified 37° C. incubator. RAW264.7 cells were plated in 24-well dishes at 10^6 cells/well in the above medium and incubated at 37° C. in 5% CO2 overnight. RPMI was aspirated from cells grown overnight and replaced with fresh medium. […] Peptides were added simultaneously with LTA. After 24 hours incubation, the supernatants were removed and tested for TNF-α production by enzyme linked immunosorbent assay (ELISA; Euroclone Life Sciences, Milan, Italy) according to the manufacturer's specification. All samples were run in duplicate. The detection limit for TNF-α was <0.025 ng/mL.
Nitric oxide (NO) detection: RAW264.7 cells were cultured as described above. The amount of LTA-stimulated production of NO in the supernatant over 24 hours was estimated from the accumulation of the stable NO metabolite nitrite with Griess reagent (Molecular Probes, Eugene, Oreg.) according to the manufacturer's instructions.

[6] = test system: RAW264.7 cells; assay: LTA-induced TNF-α production by RAW264.7 cells (ELISA); assay type: cell-based, murine; conditions: 20 μg/mL inactive RIP peptide analogue; data not shown
Procedure: as §5

[7] = model 1a: i.v. treatment immediately after challenge
[8] = model 1a: treatment immediately after challenge
[9] = model 1b: i.v. treatment 6 h (360 min) after challenge
[10] = model 1b: treatment 6 h after challenge

Compound | Lethality (%) [1, 7] | Quantitative Blood Culture (CFU/ml), mean ± S.D. [1, 8] | Lethality (%) [1, 9] | Quantitative Blood Culture (CFU/ml), mean ± S.D. [1, 10] | changes in physiological parameters [4] | drug-related adverse effects [4] | other results
C[C@@H](O)[C@H]1C(=O)N2C(C(=O)O)=C(SCCN=CN)C[C@H]12 [imipenem] | 30% | 5.8 ± 1.4 × 10^2de CFU/ml | 35% | 7.1 ± 1.7 × 10^2de CFU/ml | – | – | –
CN[C@H](CC(C)C)C(=O)N[C@H]1C(=O)N[C@@H](CC(N)=O)C(=O)N[C@H]2C(=O)N[C@H]3C(=O)N[C@H](C(=O)N[C@H](C(=O)O)c4cc(O)cc(O)c4-c4cc3ccc4O)[C@H](O)c3ccc(c(Cl)c3)Oc3cc2cc(c3O[C@@H]2O[C@H](CO)[C@@H](O)[C@H](O)[C@H]2O[C@H]2C[C@](C)(N)[C@H](O)[C@H](C)O2)Oc2ccc(cc2Cl)[C@H]1O [vancomycin] | 20% | 7.8±1.8×10^1 CFU/ml | 20% | 9.0 ± 2.8 × 10^1deg CFU/ml | – | – | IL-6 plasma levels ([2]; model 2a: drugs at 0 min after heat-killed cell challenge, FIG. 4A): No substantial differences; plasma IL-6 concentrations ([2]; model 2b: drugs 360 min after heat-killed bacterial challenge, FIG. 4B): constant increase; Lethality (dead/total) [1, 7]: 4/20; Qualitative Blood Culture (positive/total) [1, 8]: 5/20^df; Quantitative Blood Culture (CFU/ml), mean ± S.D. ([1]; model 1a: treatment immediately after challenge, listed as VAN): 7.8 ± 1.8 × 10^1deg CFU/ml; Lethality (dead/total) [1, 9]: 4/20; Qualitative Blood Culture (positive/total) [1, 10]: 5/20^df; TNF-α plasma levels ([3]; model 2a: drugs at 0 min after heat-killed cell challenge, FIG. 3A): No substantial differences; plasma TNF-α concentrations ([3]; model 2b: drugs 360 min after heat-killed bacterial challenge, FIG. 3B): constant increase
GGLRSLGRKILRAWKKYGPIIVPIIRI-NH2 [BMAP-28] | – | – | – | – | no changes in physiological parameters | none of the animals had clinical evidence of drug-related adverse effects | –
YKPETNF-NH2 [inactive RIP peptide analogue] | – | – | – | – | – | – | decrease of LTA-stimulated NO [5]: did not demonstrate decrease; decrease of LTA-induced TNF-α [6]: did not demonstrate decrease
YSPWTNF-NH2 [RIP, YSPWTNF-NH2] | – | – | – | – | no changes in physiological parameters | none of the animals had clinical evidence of drug-related adverse effects | –
